For one assay, the system named is HDAC6. The assay can be described thus: Western blot analysis of tubulin K40 acetylation as a marker for HDAC6 inhibition. The class given is cell-based, human. The note with it: 24 h; bufexamac 30 µM, tubastatin A 7.5 µM, tubacin 7.5 µM. As to the method: Western blot analysis was performed as previously described. The following antibodies were used: anti-HDAC6 (sc-11420, Santa Cruz), anti-HDAC10 (H3413, Sigma), anti-acetylated histone H3 (06-911, Merck Millipore), anti-histone H3 (9715, Cell Signaling Technology, Cambridge UK), anti-LAMP-1 (H4A3, DHSB, Iowa City, IA, USA), anti-LAMP-2 (H4B4; Santa Cruz Biotechnology), anti-acetylated tubulin (6–11B-1; Sigma), anti-tubulin (2148, Cell Signaling Technology), anti P-glycoprotein (13978 S, Cell Signaling Technology) and anti-β-actin (clone AC-15; Sigma).

Another assay concerns IMR-32 cells. As to the kind of experiment: Flow cytometric quantification of intracellular doxorubicin accumulation, IMR-32. Format: cell-based, human. The following applies: 50 ng/ml doxorubicin +/− 7.5 µM tubastatin A, 18 h. On the procedure:
For flow cytometric quantification of intracellular doxorubicin after HDAC6/10 inhibition, BE(2)-C, SK-N-AS, IMR-32, HAP1 wild type and HDAC10 knockout cells were seeded in 6-well dishes at a density of 1.5 ∗ 10^5 cells/well (BE(2)-C and SK-N-AS, HAP1) and 3 ∗ 10^5 cells/well (IMR-32). Cells were treated with 25 ng/ml, 50 ng/ml, 100 ng/ml or 1 µg/ml doxorubicin, respectively, for 3–48 h (see respective figure legend). Where indicated, cells were co-treated with HDAC6/10 or lysosomal inhibitors. In case of co-treatment with vacuolin-1, vacuolin-1 was directly added to cells under doxorubicin treatment 1 h or 24 h prior to analysis. Flow cytometric quantification of intracellular doxorubicin after HDAC6, HDAC10 or P-glycoprotein knockdown in BE(2)-C cells was performed 5 days (P-glycoprotein) or 6 days (HDAC6/10) after transfection with siRNA. To that end, cells were seeded 3–4 days after transfection into 6-well dishes at 1.5 ∗ 10^5 cells per well and treated with 100 ng/ml doxorubicin +/− HDAC6/10 and lysosomal inhibitors for the last 24 h. After doxorubicin treatment, BE(2)-C, SK-N-AS, IMR-32 and HAP1 cells were washed with ice-cold RPMI w/o phenol-red and detached using Trypsin/EDTA for 3 minutes at 37 °C. Cells were centrifuged, resuspended in RPMI w/o phenol red and doxorubicin fluorescence was quantified on a BD FACSCanto II platform using the PE filter setting.
Background: Flow cytometry measures light scatter and fluorescence of single cells or particles in a stream.

In assay [1] the test system is proliferating human fibroblasts. The assay can be described thus: Flow cytometric analysis of cellular doxorubicin fluorescence, fibroblasts. Format: cell-based. The following applies: 100 ng/ml doxorubicin 48 h; tubastatin A 7.5 µM, vacuolin-1 10 µM, verapamil 10 µM.
Assay [2] deals with BE(2)-C cells. As to the kind of experiment: Cell viability, automated trypan blue exclusion, BE(2)-C. Format: cell-based, human. As to the method: Adherent cell lines were trypsinized and cells were pooled with corresponding supernatant, centrifuged and resuspended in 1.5 ml cell culture media. Cell viability was measured by automated trypan blue staining with the Vi-Cell XR Cell Viability Analyzer from Beckman Coulter (Krefeld, Germany).

For assay [3], the system named is BE(2)-C cells. The assay can be described thus: Colony formation assay. The class given is cell-based, human. The note with it: treated for 24 h, 11 more days growth. As to the method: RNA isolation and real-time RT-PCR
RNA was isolated from neuroblastoma cell lines using the RNeasy MiniKit (Qiagen) according to
manufacturer's instructions. Real-time RT-PCR was performed as described in1. Data were normalized
to neuroblastoma housekeeping genes SDHA and […] and depicted as fold change relative to
negative control. The following primer pairs were used: HPRT (hypoxanthine
phosphoribosyltransferase 1, forward: 5′-[…]-3′ reverse: 5′-
-3′, ABCB1 (P-GP), forward: 5'-[…]-
3', reverse: 5'-[…]-3' , SDHA (succinate dehydrogenase complex,
subunit A, forward: 5′-[…]-3′, reverse: 5′-
BE(2)-C cells were seeded on 6-well plates at a density of 800 cells per well and treated as indicated
for 24 hours. After 24 hours, drugs were washed out and cells were allowed to grow for 11 more days
before staining of viable cell colonies with crystal violet (1 % crystal violet (w/v) in 70% ethanol). For
quantification, the plates were scanned, and colonies were counted in […] binary pictures with the
ITCN plugin for ImageJ software (U. S. National Institutes of Health, Bethesda, MD,
USA; http://imagej.nih.gov/ij/).

The structures appear in SMILES notation.

Turning to `CN1CCc2c(c3ccccc3n2Cc2ccc(C(=O)NO)cc2)C1` [tubastatin A], in the assay on HDAC6, the “HDAC6 inhibition (tubulin K40 acetylation)” value is given as “substantially inhibited HDAC6”. Moreover, in the assay on IMR-32 cells, the “doxorubicin accumulation, IMR-32” value was “increased accumulation of doxorubicin”. Further, the “intracellular doxorubicin in fibroblasts” value in assay [1] was “did not exhibit strongly increased intracellular doxorubicin”. Moreover, in the assay on BE(2)-C cells [2] (100 ng/ml doxorubicin, 7.5 µM tubastatin A or vacuolin-1 alone), the “viability of BE(2)-C cells, single treatment” value is recorded as “did not substantially reduce cell viability”. Moreover, the “viability of BE(2)-C cells, combination with 100 ng/ml doxorubicin, 24 h or 48 h” value in the assay on BE(2)-C cells [2] (7.5 µM tubastatin A) is given as “strongly reduced viability”. The “growth of BE(2)-C cells in colony assays, combination with doxorubicin” value in the assay with BE(2)-C cells [3] is given as “effectively reduce growth”.

The record behind these values is publication PMC6030077, “Dual role of HDAC10 in lysosomal exocytosis and DNA repair promotes neuroblastoma chemoresistance” (Scientific Reports, 2018).
